According to PMC7756445, “A Novel Prodrug of a nNOS Inhibitor with Improved Pharmacokinetic Potential” (Chemmedchem, 2020):

Assay: PAMPA-BBB assay
Set-up: Papp at 18 h: dose or concentration left out as unconfirmed
Conditions: porcine polar brain lipid, 18 h
Method: The relative passive transcellular diffusion of compounds, expressed as permeability coefficient (Pe), was determined with a permeability equation. ^[45] The permeabilities of 1, 2, and 1400 W were determined at pH 5.0, 6.5, and 7.4 to mimic the physiological conditions of the GI tract (Table 1). […] As the new prodrug was designed for the potential treatment of neurodegenerative diseases, an important parameter is its capability to cross the BBB.
PAMPA‐BBB assays were performed following the same procedure described above for PAMPA‐GI. Briefly, an artificial membrane consisting in a porcine polar brain lipid extract mixture (purchased from Avantis Polar Lipids, Alabaster, AL, USA) and an incubation time of 18 h were adopted as experimental conditions.

In the case of `C/C(=N\O)NC(c1ccccc1)c1ccccc1` [Compound 2, (1E)‐N‐(diphenylmethyl)‐N′‐hydroxyethanimidamide], the Papp at 18 h (pig, PAMPA, PAMPA-BBB permeability Pe) is reported as > 4 ×10⁻⁶ cm/s and the PAMPA-BBB permeation class is reported as “CNS+ (CNS+ (indicative of high BBB permeation): Pe >4.0)”.
